Test results from patent US20100048950A1 (BOEHRINGER INGELHEIM INTERNATIONAL GMBH, priority 2007, published 2010).

target: T1, human glucocorticoid receptor (GR) complex (Homo sapiens, UniProt P04150); test: Glucocorticoid receptor competitive binding assay (fluorescence polarization); conditions: competition with TAMRA-labeled dexamethasone, read-out: potent activity (IC50) in the GR binding assay
T1 construct: made in house; host or cells: insect expression system (baculovirus lysate)
T1 sequence (P04150 1-777): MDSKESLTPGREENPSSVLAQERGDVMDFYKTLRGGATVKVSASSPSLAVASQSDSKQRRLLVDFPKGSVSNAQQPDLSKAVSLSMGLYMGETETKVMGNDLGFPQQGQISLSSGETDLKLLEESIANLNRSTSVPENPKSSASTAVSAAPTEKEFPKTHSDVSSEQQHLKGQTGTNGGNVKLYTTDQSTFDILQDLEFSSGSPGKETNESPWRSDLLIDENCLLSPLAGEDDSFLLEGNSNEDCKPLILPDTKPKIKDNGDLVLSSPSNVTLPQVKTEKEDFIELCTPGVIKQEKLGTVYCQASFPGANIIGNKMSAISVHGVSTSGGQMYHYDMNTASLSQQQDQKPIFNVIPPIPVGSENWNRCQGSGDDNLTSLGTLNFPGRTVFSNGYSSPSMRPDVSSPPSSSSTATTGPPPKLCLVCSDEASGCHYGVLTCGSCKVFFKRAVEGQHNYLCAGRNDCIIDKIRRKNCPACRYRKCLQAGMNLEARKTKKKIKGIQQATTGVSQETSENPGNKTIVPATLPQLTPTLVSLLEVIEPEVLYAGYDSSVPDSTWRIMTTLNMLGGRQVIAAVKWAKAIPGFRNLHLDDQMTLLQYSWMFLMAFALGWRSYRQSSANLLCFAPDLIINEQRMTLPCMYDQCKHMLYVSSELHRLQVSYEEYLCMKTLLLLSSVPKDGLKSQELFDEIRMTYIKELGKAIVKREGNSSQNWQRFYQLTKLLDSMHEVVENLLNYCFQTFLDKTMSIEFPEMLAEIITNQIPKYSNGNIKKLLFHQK
Description: Compounds of the invention were evaluated for binding to the steroid receptor by a fluorescence polarization competitive binding assay. Detailed descriptions for preparation of recombinant glucocorticoid receptor (GR) complex used in the assay is described in U.S. Patent Application Publication No. US 2003/0017503, filed May 20, 2002, and incorporated herein by reference in its entirety. Preparation of the tetramethylrhodamine (TAMRA)-labeled dexamethasone probe was accomplished using a standard literature procedure (M. Pons et al., J. Steroid Biochem., 1985, 22, pp. 267-273).
The affinity of the probe for the steroid receptor was then determined in a titration experiment. The fluorescence polarization value of the probe in assay buffer was measured on an SLM-8100 fluorometer using the excitation and emission maximum values described above. Aliquots of expression vector lysate were added and fluorescence polarization was measured after each addition until no further change in polarization value was observed. Non-linear least squares regression analysis was used to calculate the dissociation constant of the probe from the polarization values obtained for lysate binding to the probe.
This assay uses fluorescence polarization (FP) to quantitate the ability of test compounds to compete with tetramethylrhodamine (TAMRA)-labeled dexamethasone for binding to a human glucocorticoid receptor (GR) complex prepared from an insect expression system. The assay buffer was: 10 mM TES, 50 mM KCl, 20 mM Na2MoO4.2H2O, 1.5 mM EDTA, 0.04% w/v CHAPS, 10% v/v glycerol, 1 mM dithiothreitol, pH 7.4. Test compounds were dissolved to 1 mM in neat DMSO and then further diluted to 10× assay concentration in assay buffer supplemented with 10% v/v DMSO. Test compounds were serially diluted at 10× assay concentrations in 10% DMSO-containing buffer in 96-well polypropylene plates. Binding reaction mixtures were prepared in 96-well black Dynex microtiter plates by sequential addition of the following assay components to each well: 15 μL of 10× test compound solution, 85 μL of GR-containing baculovirus lysate diluted 1:170 in assay buffer, and 50 μL of 15 nM TAMRA-labeled dexamethasone. Positive controls were reaction mixtures containing no test compound; negative controls (blanks) were reaction mixtures containing 0.7 μM to 2 μM dexamethasone. The binding reactions were incubated for 1 hour at room temperature and then read for fluorescence polarization in the LJL Analyst set to 550 nm excitation and 580 nm emission, with the Rhodamine 561 dichroic mirror installed. IC50 values were determined by iterative non-linear curve fitting of the FP signal data to a 4-parameter logistic equation.

IC50, ≤ 100 nM:
Cc1cc(C)c(S(=O)(=O)NC(CNc2cccc(C#N)c2)C(F)(F)F)c(C)c1 (stereo not shown) [N-{1-[(3-Cyanophenylamino)methyl]-2,2,2-trifluoroethyl}-2,4,6-trimethylbenzenesulfonamide]
Cc1ccc(OCC(NS(=O)(=O)c2c(C)cc(C)cc2C)C(F)(F)F)cc1 (stereo not shown) [2,4,6-Trimethyl-N-(2,2,2-trifluoro-1-p-tolyloxymethylethyl)benzenesulfonamide]
Cc1cc(C)c(S(=O)(=O)NC(COc2ccc3c(c2)CCC3)C(F)(F)F)c(C)c1 (stereo not shown) [2,4,6-Trimethyl-N-[2,2,2-trifluoro-1-(indan-5-yloxymethyl)ethyl]benzenesulfonamide]
Cc1cc(C)c(S(=O)(=O)NC(CSc2c(C)cccc2Cl)C(F)(F)F)c(C)c1 (stereo not shown) [N-[1-(2-Chloro-6-methylphenylsulfanylmethyl)-2,2,2-trifluoroethyl]-2,4,6-trimethylbenzenesulfonamide]
Cc1cc(C)c(S(=O)(=O)NC(COc2ccc(C#N)c(Cl)c2)C(F)(F)F)c(C)c1 (stereo not shown) [N-[1-(3-Chloro-4-cyanophenoxymethyl)-2,2,2-trifluoroethyl]-2,4,6-trimethylbenzenesulfonamide]
CCC(CSc1ccccc1)NS(=O)(=O)c1c(C)cc(C)cc1C (stereo not shown) [2,4,6-Trimethyl-N-(1-phenylsulfanylmethylpropyl)benzenesulfonamide]
COc1ccc(N(Cc2ccccc2)CC(NS(=O)(=O)c2c(C)cc(C)cc2C)C(F)(F)F)cc1 (stereo not shown) [N-(1-{[Benzyl-(4-methoxyphenyl)amino]methyl}-2,2,2-trifluoroethyl)-2,4,6-trimethylbenzenesulfonamide]
Cc1cc(C)c(S(=O)(=O)NC(COc2ccc(Br)cc2C)C(F)(F)F)c(C)c1 (stereo not shown) [N-[1-(4-Bromo-2-methylphenoxymethyl)-2,2,2-trifluoroethyl]-2,4,6-trimethylbenzenesulfonamide]
Cc1cc(C)c(S(=O)(=O)NC(COc2ccc(C#N)cc2)C(F)(F)F)c(C)c1 (stereo not shown) [N-[1-(4-Cyanophenoxymethyl)-2,2,2-trifluoroethyl]-2,4,6-trimethylbenzenesulfonamide]
Cc1cc(C)c(S(=O)(=O)NC(COc2cc(F)c(F)cc2F)C(F)(F)F)c(C)c1 (stereo not shown) [2,4,6-Trimethyl-N-[2,2,2-trifluoro-1-(2,4,5-trifluorophenoxymethyl)ethyl]benzenesulfonamide]
Cc1cc(C)c(S(=O)(=O)NC(CNc2cc(Cl)ccc2Cl)C(F)(F)F)c(C)c1 (stereo not shown) [N-{1-[(2,5-Dichlorophenylamino)methyl]-2,2,2-trifluoroethyl}-2,4,6-trimethylbenzenesulfonamide]
Cc1cc(C)c(S(=O)(=O)NC(CSc2ccc(Br)cc2OC(F)(F)F)C(F)(F)F)c(C)c1 (stereo not shown) [N-[1-(4-Bromo-2-trifluoromethoxyphenylsulfanylmethyl)-2,2,2-trifluoroethyl]-2,4,6-trimethylbenzenesulfonamide]
Cc1cc(C)c(S(=O)(=O)NC(COc2ccc(C)cc2Cl)C(F)(F)F)c(C)c1 (stereo not shown) [N-[1-(2-Chloro-4-methylphenoxymethyl)-2,2,2-trifluoroethyl]-2,4,6-trimethylbenzenesulfonamide]
Cc1cc(C)c(S(=O)(=O)NC(CNc2c(F)cccc2F)C(F)(F)F)c(C)c1 (stereo not shown) [N-{1-[(2,6-Difluorophenylamino)methyl]-2,2,2-trifluoroethyl}-2,4,6-trimethylbenzenesulfonamide]
Cc1cc(C)c(S(=O)(=O)NC(COc2cc(C)c(C#N)c(C)c2)C(F)(F)F)c(C)c1 (stereo not shown) [N-[1-(4-Cyano-3,5-dimethylphenoxymethyl)-2,2,2-trifluoroethyl]-2,4,6-trimethylbenzenesulfonamide]
Cc1ccc(OCC(NS(=O)(=O)c2c(C)cc(C)cc2C)C(F)(F)F)c(C)c1 (stereo not shown) [N-[1-(2,4-Dimethylphenoxymethyl)-2,2,2-trifluoroethyl]-2,4,6-trimethylbenzenesulfonamide]
Cc1cc(C)c(S(=O)(=O)NC(CNc2ccc(Cl)cc2C#N)C(F)(F)F)c(C)c1 (stereo not shown) [N-{1-[(4-Chloro-2-cyanophenylamino)methyl]-2,2,2-trifluoroethyl}-2,4,6-trimethylbenzenesulfonamide]
Cc1cc(C)c(S(=O)(=O)NC(COc2cc(F)cc(C(F)(F)F)c2)C(F)(F)F)c(C)c1 (stereo not shown) [2,4,6-Trimethyl-N-[2,2,2-trifluoro-1-(3-fluoro-5-trifluoromethylphenoxymethyl)ethyl]benzenesulfonamide]
Cc1cc(C)c(S(=O)(=O)NC(CNc2ccc(Cl)cc2)C(F)(F)F)c(C)c1 (stereo not shown)
Cc1cc(C)c(S(=O)(=O)NC(COc2ccc(Cl)cc2)C(F)(F)F)c(C)c1 (stereo not shown)
Cc1ccc(SCC(NS(=O)(=O)c2c(N)cc(Cl)cc2Cl)C(F)(F)F)cc1 (stereo not shown) [2-Amino-4,6-dichloro-N-(2,2,2-trifluoro-1-p-tolylsulfanylmethylethyl)benzenesulfonamide]
Cc1cc(C)c(S(=O)(=O)NC(CNc2ccc(C#N)cc2Cl)C(F)(F)F)c(C)c1 (stereo not shown) [N-{1-[(2-Chloro-4-cyanophenylamino)methyl]-2,2,2-trifluoroethyl}-2,4,6-trimethylbenzenesulfonamide]
Cc1cc(C)c(S(=O)(=O)NC(COc2cccc(OC(F)(F)F)c2)C(F)(F)F)c(C)c1 (stereo not shown) [2,4,6-Trimethyl-N-[2,2,2-trifluoro-1-(3-trifluoromethoxyphenoxymethyl)ethyl]benzenesulfonamide]
Cc1cc(C)c(S(=O)(=O)NC(COc2cccc(C#N)c2)C(F)(F)F)c(C)c1 (stereo not shown) [N-[1-(3-Cyanophenoxymethyl)-2,2,2-trifluoroethyl]-2,4,6-trimethylbenzenesulfonamide]
COc1ccc(NCC(NS(=O)(=O)c2c(C)cc(C)cc2C)C(F)(F)F)c(OC)c1 (stereo not shown) [N-{1-[(2,4-Dimethoxyphenylamino)methyl]-2,2,2-trifluoroethyl}-2,4,6-trimethylbenzenesulfonamide]
Cc1cc(C)c(S(=O)(=O)NC(CNc2cccc(Br)c2)C(F)(F)F)c(C)c1 (stereo not shown) [N-{1-[(3-Bromophenylamino)methyl]-2,2,2-trifluoroethyl}-2,4,6-trimethylbenzenesulfonamide]
Cc1cc(C)c(S(=O)(=O)NC(CNc2ccccc2C#N)C(F)(F)F)c(C)c1 (stereo not shown) [N-{1-[(2-Cyanophenylamino)methyl]-2,2,2-trifluoroethyl}-2,4,6-trimethylbenzenesulfonamide]
Cc1cc(C)c(S(=O)(=O)NC(CSc2cccc(Br)c2)C(F)(F)F)c(C)c1 (stereo not shown) [N-[1-(3-Bromophenylsulfanylmethyl)-2,2,2-trifluoroethyl]-2,4,6-trimethylbenzenesulfonamide]
CCOC(=O)c1ccc(OCC(NS(=O)(=O)c2c(C)cc(C)cc2C)C(F)(F)F)c(OC)c1 (stereo not shown) [3-Methoxy-4-[3,3,3-trifluoro-2-(2,4,6-trimethylbenzenesulfonylamino)propoxy]benzoic acid ethyl ester]
Cc1cc(C)c(S(=O)(=O)NC(COc2ccc(F)cc2C)C(F)(F)F)c(C)c1 (stereo not shown) [2,4,6-Trimethyl-N-[2,2,2-trifluoro-1-(4-fluoro-2-methylphenoxymethyl)ethyl]benzenesulfonamide]
Cc1ccc(NCC(NS(=O)(=O)c2c(C)cc(C)cc2C)C(F)(F)F)cc1 (stereo not shown) [2,4,6-Trimethyl-N-[2,2,2-trifluoro-1-(p-tolylaminomethyl)ethyl]benzenesulfonamide]
